Activity calls are given as the source filed them. No cut-off for these calls is given here.
Assays:
[1] = molecular target: Vascular endothelial growth factor receptor 2 (Homo sapiens) (UniProt P35968); assay: Inhibition of VEGFR2 (unknown origin) at 1 uM
[2] = molecular target: RAC-alpha serine/threonine-protein kinase (Homo sapiens) (UniProt P31749); assay: Inhibition of AKT1 (unknown origin) at 1 uM
[3] = molecular target: Mitogen-activated protein kinase 8 (Rattus norvegicus) (UniProt P49185); assay: Inhibition of albumin-conjugated palmitate-induced JNK1/2 phosphorylation assessed as JNK phosphorylation level in rat RINm5F cells incubated for 8 hrs; type: cell-based
Mitogen-activated protein kinase 8 (Rattus norvegicus), sequence (P49185 whole entry): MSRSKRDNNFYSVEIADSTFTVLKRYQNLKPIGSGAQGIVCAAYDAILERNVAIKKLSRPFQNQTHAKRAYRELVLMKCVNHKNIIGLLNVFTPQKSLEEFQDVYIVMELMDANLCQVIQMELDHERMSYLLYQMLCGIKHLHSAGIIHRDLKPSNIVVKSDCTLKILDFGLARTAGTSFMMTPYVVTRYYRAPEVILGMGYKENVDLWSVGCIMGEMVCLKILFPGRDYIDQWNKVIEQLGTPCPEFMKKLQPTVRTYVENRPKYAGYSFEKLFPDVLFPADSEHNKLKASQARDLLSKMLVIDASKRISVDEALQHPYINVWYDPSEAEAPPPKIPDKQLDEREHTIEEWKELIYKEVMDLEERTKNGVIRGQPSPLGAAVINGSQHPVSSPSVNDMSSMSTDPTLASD

[4] = molecular target: Protein kinase C alpha type (Homo sapiens) (UniProt P17252); assay: Inhibition of PKCalpha (unknown origin) at 1 uM
[5] = molecular target: Tyrosine-protein kinase SYK (Homo sapiens) (UniProt P43405); assay: Inhibition of SYK (unknown origin) at 1 uM
[6] = molecular target: Serine/threonine-protein kinase B-raf (Homo sapiens) (UniProt P15056); assay: Inhibition of B-RAF (unknown origin) at 1 uM
[7] = molecular target: Fibroblast growth factor receptor 3 (Homo sapiens) (UniProt P22607); assay: Inhibition of FGFR3 (unknown origin) at 1 uM
Fibroblast growth factor receptor 3 (Homo sapiens), sequence (P22607 23-806 limits assumed): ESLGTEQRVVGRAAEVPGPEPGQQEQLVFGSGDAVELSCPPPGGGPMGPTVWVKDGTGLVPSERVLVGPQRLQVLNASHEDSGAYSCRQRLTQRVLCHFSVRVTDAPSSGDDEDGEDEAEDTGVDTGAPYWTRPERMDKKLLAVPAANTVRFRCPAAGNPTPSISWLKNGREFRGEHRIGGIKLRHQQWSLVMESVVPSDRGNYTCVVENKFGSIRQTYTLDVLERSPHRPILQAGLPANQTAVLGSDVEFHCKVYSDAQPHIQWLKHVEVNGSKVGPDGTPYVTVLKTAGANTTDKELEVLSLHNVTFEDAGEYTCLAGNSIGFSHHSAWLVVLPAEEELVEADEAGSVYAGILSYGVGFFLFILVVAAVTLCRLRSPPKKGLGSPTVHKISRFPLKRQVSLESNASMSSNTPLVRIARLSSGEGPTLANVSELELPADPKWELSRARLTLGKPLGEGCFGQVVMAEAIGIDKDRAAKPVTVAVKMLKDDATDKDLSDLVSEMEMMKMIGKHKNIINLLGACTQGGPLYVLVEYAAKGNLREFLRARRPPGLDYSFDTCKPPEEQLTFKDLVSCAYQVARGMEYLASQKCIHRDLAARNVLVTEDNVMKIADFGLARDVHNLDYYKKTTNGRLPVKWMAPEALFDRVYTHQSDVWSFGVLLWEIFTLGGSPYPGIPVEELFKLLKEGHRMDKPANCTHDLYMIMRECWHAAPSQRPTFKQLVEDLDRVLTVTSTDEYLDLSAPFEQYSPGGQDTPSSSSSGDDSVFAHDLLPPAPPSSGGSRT

[8] = molecular target: Serine/threonine-protein kinase mTOR (Homo sapiens) (UniProt P42345); assay: Inhibition of mTOR (unknown origin) at 1 uM
[9] = molecular target: Insulin receptor (Homo sapiens) (UniProt P06213); assay: Inhibition of INSR (unknown origin) at 1 uM
[10] = molecular target: T1, Inhibitor of nuclear factor kappa-B kinase subunit beta (Homo sapiens) (UniProt O14920); assay: Inhibition of IKKbeta (unknown origin) at 1 uM
T1 sequence (whole entry): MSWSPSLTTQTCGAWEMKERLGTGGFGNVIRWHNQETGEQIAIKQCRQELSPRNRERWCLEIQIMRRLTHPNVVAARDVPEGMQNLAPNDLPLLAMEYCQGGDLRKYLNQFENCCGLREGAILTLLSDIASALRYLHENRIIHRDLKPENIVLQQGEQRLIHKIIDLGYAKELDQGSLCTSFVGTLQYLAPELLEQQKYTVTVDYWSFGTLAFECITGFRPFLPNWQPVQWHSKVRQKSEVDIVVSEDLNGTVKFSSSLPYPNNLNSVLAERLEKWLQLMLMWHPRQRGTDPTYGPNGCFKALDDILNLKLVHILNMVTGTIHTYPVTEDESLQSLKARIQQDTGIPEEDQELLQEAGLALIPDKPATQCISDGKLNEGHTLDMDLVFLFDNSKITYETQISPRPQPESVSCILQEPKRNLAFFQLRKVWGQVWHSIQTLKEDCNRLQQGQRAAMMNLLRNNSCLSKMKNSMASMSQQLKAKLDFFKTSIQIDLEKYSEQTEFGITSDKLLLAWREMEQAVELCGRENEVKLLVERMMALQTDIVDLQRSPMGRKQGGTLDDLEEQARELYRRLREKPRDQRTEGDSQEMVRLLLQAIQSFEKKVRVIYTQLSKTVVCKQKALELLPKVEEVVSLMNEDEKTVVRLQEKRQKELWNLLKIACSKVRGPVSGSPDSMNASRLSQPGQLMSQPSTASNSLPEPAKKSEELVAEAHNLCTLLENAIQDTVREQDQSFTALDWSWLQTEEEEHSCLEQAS

[11] = molecular target: Rho-associated protein kinase 2 (Homo sapiens) (UniProt O75116); assay: Inhibition of ROCK2 (unknown origin) at 1 uM
[12] = molecular target: T2, Tyrosine-protein kinase JAK3 (Homo sapiens) (UniProt P52333); assay: Inhibition of JAK3 (unknown origin) at 1 uM
T2 sequence (whole entry): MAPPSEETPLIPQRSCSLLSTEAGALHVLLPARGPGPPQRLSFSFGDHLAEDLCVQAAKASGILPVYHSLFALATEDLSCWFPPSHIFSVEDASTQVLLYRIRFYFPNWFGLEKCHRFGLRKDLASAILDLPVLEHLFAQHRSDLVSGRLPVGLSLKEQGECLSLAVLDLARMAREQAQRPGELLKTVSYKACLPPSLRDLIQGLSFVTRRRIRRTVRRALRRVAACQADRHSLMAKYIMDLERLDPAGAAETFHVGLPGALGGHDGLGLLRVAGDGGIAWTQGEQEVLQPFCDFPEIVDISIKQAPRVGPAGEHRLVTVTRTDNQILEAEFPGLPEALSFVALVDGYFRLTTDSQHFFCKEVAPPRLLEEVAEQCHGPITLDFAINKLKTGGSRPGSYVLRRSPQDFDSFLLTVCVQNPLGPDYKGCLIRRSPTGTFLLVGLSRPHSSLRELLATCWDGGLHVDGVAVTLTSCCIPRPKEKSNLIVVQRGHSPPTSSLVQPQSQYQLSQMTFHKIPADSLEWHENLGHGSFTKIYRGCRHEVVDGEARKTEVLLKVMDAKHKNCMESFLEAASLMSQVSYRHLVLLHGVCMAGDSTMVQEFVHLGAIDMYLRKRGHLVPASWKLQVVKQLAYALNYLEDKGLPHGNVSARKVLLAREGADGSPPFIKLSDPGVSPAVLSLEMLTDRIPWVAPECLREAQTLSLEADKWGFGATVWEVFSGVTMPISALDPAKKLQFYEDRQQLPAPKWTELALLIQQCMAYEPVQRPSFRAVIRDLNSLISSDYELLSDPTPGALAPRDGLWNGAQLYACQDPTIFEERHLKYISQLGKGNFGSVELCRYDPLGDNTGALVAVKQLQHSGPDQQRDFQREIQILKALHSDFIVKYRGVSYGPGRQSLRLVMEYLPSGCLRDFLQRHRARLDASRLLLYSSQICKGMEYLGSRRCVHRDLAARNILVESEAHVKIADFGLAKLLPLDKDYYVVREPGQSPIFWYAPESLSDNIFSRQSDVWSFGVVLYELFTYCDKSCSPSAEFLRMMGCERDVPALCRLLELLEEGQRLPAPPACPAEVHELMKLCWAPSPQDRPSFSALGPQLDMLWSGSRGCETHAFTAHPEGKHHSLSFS

[13] = molecular target: Serine/threonine-protein kinase pim-1 (Homo sapiens) (UniProt P11309); assay: Inhibition of PIM1 (unknown origin) at 1 uM
Serine/threonine-protein kinase pim-1 (Homo sapiens), sequence (P11309 whole entry, looked up): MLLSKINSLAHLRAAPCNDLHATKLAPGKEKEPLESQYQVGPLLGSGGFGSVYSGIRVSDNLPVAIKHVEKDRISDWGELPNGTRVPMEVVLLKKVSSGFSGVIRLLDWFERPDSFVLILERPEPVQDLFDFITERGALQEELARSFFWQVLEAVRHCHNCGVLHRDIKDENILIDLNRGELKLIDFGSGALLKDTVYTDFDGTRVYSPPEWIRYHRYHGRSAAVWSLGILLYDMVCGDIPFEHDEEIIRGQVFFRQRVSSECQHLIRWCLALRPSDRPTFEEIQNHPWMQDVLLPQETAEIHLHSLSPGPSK

[14] = molecular target: Platelet-derived growth factor receptor beta (Homo sapiens) (UniProt P09619); assay: Inhibition of PDGFRbeta (unknown origin) at 1 uM
[15] = molecular target: Mitogen-activated protein kinase 3 (Homo sapiens) (UniProt P27361); assay: Inhibition of ERK1 (unknown origin) at 1 uM
Mitogen-activated protein kinase 3 (Homo sapiens), sequence (P27361 whole entry): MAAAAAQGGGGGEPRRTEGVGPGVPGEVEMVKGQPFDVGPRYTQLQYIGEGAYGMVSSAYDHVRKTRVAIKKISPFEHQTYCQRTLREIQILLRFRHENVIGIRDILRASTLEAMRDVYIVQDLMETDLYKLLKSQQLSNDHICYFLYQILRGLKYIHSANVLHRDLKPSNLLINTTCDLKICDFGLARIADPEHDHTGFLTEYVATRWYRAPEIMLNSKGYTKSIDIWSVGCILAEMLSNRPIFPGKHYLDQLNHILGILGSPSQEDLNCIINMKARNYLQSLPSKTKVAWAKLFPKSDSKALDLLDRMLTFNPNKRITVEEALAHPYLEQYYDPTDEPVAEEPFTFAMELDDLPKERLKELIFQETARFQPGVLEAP

[16] = molecular target: Serine/threonine-protein kinase PAK 1 (Homo sapiens) (UniProt Q13153); assay: Inhibition of PAK1 (unknown origin) at 1 uM
Serine/threonine-protein kinase PAK 1 (Homo sapiens), sequence (Q13153 whole entry): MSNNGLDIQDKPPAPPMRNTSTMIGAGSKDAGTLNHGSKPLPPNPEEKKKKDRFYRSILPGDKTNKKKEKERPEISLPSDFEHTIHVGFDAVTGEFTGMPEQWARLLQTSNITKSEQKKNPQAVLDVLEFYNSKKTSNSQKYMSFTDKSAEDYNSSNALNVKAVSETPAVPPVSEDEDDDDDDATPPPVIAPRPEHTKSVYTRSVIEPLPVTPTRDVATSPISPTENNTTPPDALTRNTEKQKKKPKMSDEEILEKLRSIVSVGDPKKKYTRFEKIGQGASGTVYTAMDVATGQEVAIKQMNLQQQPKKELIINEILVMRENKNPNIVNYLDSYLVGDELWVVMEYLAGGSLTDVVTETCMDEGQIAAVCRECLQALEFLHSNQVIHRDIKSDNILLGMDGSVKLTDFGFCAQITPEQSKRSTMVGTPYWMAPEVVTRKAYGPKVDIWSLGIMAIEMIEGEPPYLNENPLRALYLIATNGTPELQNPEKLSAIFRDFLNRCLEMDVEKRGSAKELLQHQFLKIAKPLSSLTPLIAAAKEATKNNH

Vascular endothelial growth factor receptor 2 (Homo sapiens), sequence (P35968 whole entry): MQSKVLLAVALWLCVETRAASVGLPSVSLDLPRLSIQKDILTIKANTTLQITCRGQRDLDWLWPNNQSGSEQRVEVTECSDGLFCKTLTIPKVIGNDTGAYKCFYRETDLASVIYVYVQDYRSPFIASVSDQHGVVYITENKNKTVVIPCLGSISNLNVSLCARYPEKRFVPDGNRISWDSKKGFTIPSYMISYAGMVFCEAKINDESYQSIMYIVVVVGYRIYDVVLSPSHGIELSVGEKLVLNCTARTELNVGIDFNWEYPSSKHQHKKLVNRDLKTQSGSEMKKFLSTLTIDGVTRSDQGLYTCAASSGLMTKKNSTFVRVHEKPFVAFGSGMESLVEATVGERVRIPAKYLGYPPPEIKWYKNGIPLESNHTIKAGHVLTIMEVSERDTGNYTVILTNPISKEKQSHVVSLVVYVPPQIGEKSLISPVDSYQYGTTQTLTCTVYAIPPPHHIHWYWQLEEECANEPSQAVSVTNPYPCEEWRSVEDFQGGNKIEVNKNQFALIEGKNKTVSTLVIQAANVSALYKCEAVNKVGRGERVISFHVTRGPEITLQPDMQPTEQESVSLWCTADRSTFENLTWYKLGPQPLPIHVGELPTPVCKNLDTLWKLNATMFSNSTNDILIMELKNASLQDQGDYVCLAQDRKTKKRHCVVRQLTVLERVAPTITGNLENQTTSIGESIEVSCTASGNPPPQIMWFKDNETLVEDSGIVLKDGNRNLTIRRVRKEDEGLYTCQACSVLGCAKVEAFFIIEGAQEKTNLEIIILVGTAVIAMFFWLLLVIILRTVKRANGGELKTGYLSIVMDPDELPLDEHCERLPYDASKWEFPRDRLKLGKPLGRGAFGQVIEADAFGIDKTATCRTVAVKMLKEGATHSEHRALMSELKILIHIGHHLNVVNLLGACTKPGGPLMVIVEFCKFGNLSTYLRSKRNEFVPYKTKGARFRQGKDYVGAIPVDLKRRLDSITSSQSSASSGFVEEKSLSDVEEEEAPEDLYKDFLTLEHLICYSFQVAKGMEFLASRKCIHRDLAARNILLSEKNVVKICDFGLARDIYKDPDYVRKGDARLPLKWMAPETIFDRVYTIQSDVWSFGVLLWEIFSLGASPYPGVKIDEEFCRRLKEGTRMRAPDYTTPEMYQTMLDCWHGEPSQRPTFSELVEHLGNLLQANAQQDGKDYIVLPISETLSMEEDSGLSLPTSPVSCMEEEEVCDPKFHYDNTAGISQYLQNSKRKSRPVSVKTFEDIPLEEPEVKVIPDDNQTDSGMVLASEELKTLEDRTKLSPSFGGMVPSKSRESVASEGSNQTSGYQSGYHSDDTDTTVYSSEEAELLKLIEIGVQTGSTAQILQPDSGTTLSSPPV
RAC-alpha serine/threonine-protein kinase (Homo sapiens), sequence (P31749 whole entry): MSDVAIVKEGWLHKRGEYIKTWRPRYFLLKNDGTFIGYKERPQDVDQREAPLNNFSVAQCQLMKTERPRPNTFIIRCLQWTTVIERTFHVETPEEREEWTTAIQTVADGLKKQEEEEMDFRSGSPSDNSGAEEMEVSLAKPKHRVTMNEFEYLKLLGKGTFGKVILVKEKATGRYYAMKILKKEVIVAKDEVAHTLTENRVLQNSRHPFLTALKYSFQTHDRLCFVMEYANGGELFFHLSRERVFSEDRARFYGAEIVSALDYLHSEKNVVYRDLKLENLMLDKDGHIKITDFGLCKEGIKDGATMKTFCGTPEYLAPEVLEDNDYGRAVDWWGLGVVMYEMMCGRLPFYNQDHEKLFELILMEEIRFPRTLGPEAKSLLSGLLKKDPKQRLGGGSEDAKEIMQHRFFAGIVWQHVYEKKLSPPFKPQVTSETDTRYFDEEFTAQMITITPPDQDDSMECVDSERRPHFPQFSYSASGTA

Cn1c(=O)c(Oc2ccc(F)cc2F)cc2cnc(NC3CCN(S(N)(=O)=O)CC3)nc21
inhibition [1]: 9% | inhibition [2]: 8% | inhibition [3]: inactive | inhibition [4]: 10% | inhibition [5]: 14% | inhibition [6]: 18% | inhibition [7]: 5% | inhibition [8]: 9% | inhibition [9]: 11% | inhibition [10]: 13% | inhibition [11]: 13% | inhibition [12]: 10% | inhibition [13]: 6% | inhibition [14]: 13% | inhibition [15]: 16% | inhibition [16]: 16%

Source: ChEMBL document CHEMBL3745672, “Novel compounds reducing IRS-1 serine phosphorylation for treatment of diabetes” (Bioorg Med Chem Lett, 2016)
